Data taken from ChEMBL document CHEMBL1146648, “Development of l-3-aminotyrosine suitably protected for the synthesis of a novel nonphosphorylated hexapeptide with low-nanomolar Grb2-SH2 domain-binding affinity” (Bioorg Med Chem Lett, 2004).
Where a SMILES comes first, the peptide text is derived from it. Bridges are numbered along the chain shown (N, C = ends). [ ]: non-standard residue; d: D form. Tyr(3-NH2) = Nc1cc(C[C@H](N)C(=O)O)ccc1O; Gla = N[C@@H](CC(C(=O)O)C(=O)O)C(=O)O; Aad = N[C@@H](CCCC(=O)O)C(=O)O; Ac6c = NC1(C(=O)O)CCCCC1; Ava = NCCCCC(=O)O

Target: Growth factor receptor-bound protein 2 (Homo sapiens, UniProt P62993)
Test: Competitive binding affinity against Growth factor receptor bound protein 2 was assessed using SHC(pTyr-317) phospopeptide in biacore surface plasmon resonance (SPR) method

Sequence of Growth factor receptor-bound protein 2 (P62993 whole entry): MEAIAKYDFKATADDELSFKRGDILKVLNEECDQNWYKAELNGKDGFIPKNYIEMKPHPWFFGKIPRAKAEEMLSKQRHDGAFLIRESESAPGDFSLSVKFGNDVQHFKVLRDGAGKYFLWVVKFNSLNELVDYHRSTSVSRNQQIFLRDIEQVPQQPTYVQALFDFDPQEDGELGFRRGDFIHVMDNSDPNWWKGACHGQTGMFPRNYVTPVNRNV

CC(C)C[C@@H]1NC(=O)[C@H](CC(C(=O)O)C(=O)O)NC(=O)C[S+]([O-])C[C@H](C(N)=O)NC(=O)CCCCNC(=O)[C@H](C(C)C)NC(=O)[C@H](CC(N)=O)NC(=O)C2(CCCCC2)NC(=O)[C@H](Cc2ccc(O)c(N)c2)NC1=O (stereo partly specified)
IC50: 1.08 µM

CC(C)C[C@@H]1NC(=O)[C@H](CCCC(=O)O)NC(=O)C[S+]([O-])C[C@@H](C(N)=O)NC(=O)CCCCNC(=O)[C@H](C(C)C)NC(=O)[C@H](CC(N)=O)NC(=O)C2(CCCCC2)NC(=O)[C@H](Cc2ccc(O)cc2)NC1=O (stereo partly specified)
IC50: 9.8 µM

CC(C)C[C@@H]1NC(=O)[C@H](CCCC(=O)O)NC(=O)C[S+]([O-])C[C@H](C(N)=O)NC(=O)CCCCNC(=O)[C@H](C(C)C)NC(=O)[C@H](CC(N)=O)NC(=O)C2(CCCCC2)NC(=O)[C@H](Cc2ccc(O)cc2)NC1=O (stereo partly specified)
IC50: 84.5 µM

CC(C)C[C@@H]1NC(=O)[C@H](CC(C(=O)O)C(=O)O)NC(=O)C[S+]([O-])C[C@@H](C(N)=O)NC(=O)CCCCNC(=O)[C@H](C(C)C)NC(=O)[C@H](CC(N)=O)NC(=O)C2(CCCCC2)NC(=O)[C@H](Cc2ccc(O)c(N)c2)NC1=O (stereo partly specified)
IC50: 0.05 µM

CC(C)C[C@@H]1NC(=O)[C@H](CCCC(=O)O)NC(=O)CSC[C@@H](C(N)=O)NC(=O)CCCCNC(=O)[C@H](C(C)C)NC(=O)[C@H](CC(N)=O)NC(=O)C2(CCCCC2)NC(=O)[C@H](Cc2ccc(O)cc2)NC1=O ({CH2CO}-[Aad]LY[Ac6c]NV[Ava]C-NH2; thioether N-8)
IC50: 11.4 µM

CC(C)C[C@@H]1NC(=O)[C@H](CC(C(=O)O)C(=O)O)NC(=O)CSC[C@@H](C(N)=O)NC(=O)CCCCNC(=O)[C@H](C(C)C)NC(=O)[C@H](CC(N)=O)NC(=O)C2(CCCCC2)NC(=O)[C@H](Cc2ccc(O)c(N)c2)NC1=O ({CH2CO}-[Gla]L[Tyr(3-NH2)][Ac6c]NV[Ava]C-NH2; thioether N-8)
IC50: 0.16 µM
